Assays:
[1] = Stability of purine metabolites in DBS on storage; type: physicochemical; details: 5 and 25 μmol/L in DBS, stored 4.5 weeks at −20° C., 23° C. (ambient) and 30° C.
Description: Stability of purine metabolites in DBS was assessed by storing spiked samples (5 and 25 μmol/L) at various temperatures (ambient, −20° C. and 30° C.). Analysis was carried out as described over a period of […].
Analysis of DBS specimens containing Ado, dAdo, Gua and dGua at 5 and 25 μmol/L stored for a period of 4.5 weeks at −20° C., 23° C.

[2] = molecular target: ADA (Homo sapiens, UniProt P00813); details: DBS eluate, substrate 1.0 μmol/L, 37° C., 30 minutes or more
Chain of ADA (P00813 whole entry): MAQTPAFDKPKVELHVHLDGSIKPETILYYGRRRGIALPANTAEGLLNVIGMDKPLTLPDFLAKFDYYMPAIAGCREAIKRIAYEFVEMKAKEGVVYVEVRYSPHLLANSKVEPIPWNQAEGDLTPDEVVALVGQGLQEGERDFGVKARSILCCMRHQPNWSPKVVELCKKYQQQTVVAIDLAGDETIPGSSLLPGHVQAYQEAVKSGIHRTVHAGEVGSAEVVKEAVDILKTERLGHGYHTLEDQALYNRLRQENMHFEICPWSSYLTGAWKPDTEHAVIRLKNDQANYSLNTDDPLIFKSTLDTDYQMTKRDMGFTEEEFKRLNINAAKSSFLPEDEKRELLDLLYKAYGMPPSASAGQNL
Description: A 3.2 mm DBS sample was punched into the designated well of a 96 multi-well filter plate (Pall Corp, Ann Arbor, Mich., USA) and eluted using 120 μl of water by shaking at 650 rpm (24° C. for 30 min). After filtration under vacuum, two 40 μl portions of the eluate were dispensed into two 2 ml microtubes (Axygen, Union City, Calif., USA) and labeled Test and Blank. To the tube labeled Test, 10 μl of 10 μmol/l of EHNA in water were added whereas water (10 μl) was added to Blank tubes. The tubes were vortexed for 10 sec and allowed to sit at room temperature for 5 min. To each tube, 50 μl 2 mmol/L ammonium acetate containing 1 μmol/L of ^13C10, ^15N5 Ado and ^15N5 dAdo were added as ADA substrates. The mixture was incubated at 37° C. with shaking (20 rpm). After 30 minutes, the enzymatic reaction was stopped by adding 400 μl of acetonitrile containing ^13C5 Ado (0.125 μmol/L) and the mixture was vortexed for 30 sec. […] The enzyme activity expressed as pmol of residual substrate per DBS was measured by calculating the difference of ^13C10, ^15N5 Ado and ^15N5 dAdo in Test and Blank after the enzymatic reaction.
ADA activity assay conditions were determined by monitoring the enzyme reaction (up to 60 min), substrate concentration (1-10 μmol/L), EHNA concentration (2.5-160 NM) and incubation temperature (30-60° C.).

[3] = Loss of standard purines added to whole blood (residual ADA activity); type: in vitro ADME; details: whole blood without EHNA
Description: DBS calibrators could not be prepared in this work due to residual ADA activity that persisted after traditional enzyme deactivation treatments such as freeze-thawing or heating whole blood at 45° C. for 24 hours. EHNA, a specific ADA inhibitor, was added to whole blood to prevent the deamination of Ado and dAdo to inosine and deoxyinosine, respectively. Purine metabolites were extracted from 3.2 mm dried calibrators or DBS specimens using an aqueous solution of 70% methanol (v/v) containing isotope labeled IS. This solution was added directly into a 96-well plate containing samples and incubated at 37° C. with shaking (650 rpm). The extraction yield reached its maximum at 15 minutes or more. The following experiments therefore were performed at 37° C. for 15 min. Purine metabolites were stable for at least 24 h when stored in a tightly sealed vial at 8° C.
SCID newborn screening began in the United States following the recent addition of this condition to the uniform panel as recommended by the US Department of Health and Human Services. In Canada, Ontario was the first jurisdiction to screen for SCID, which began in August, 2013. TREC analysis is the primary screening method and can be achieved by real-time PCR using neonatal DBS, the sample of choice for newborn screening. However, TREC analysis is inadequate to provide additional information regarding the etiology of SCID. […]

Compound: Nc1nc2c(ncn2[C@H]2C[C@H](O)[C@@H](CO)O2)c(=O)[nH]1 [dGua, deoxyguanosine]
- Stability in DBS specimens [1]: stable

Compound: erythro-9-(2-hydroxy-3-nonyl) adenine [EHNA]
- Optimum EHNA concentration for ADA activity measurements [2]: ≥ 10 µM

Compound: Nc1ncnc2c1ncn2[C@H]1C[C@H](O)[C@@H](CO)O1 [dAdo, deoxyadenosine]
- Stability on adding standard purines to whole blood [3]: immediate loss
- Stability in DBS specimens [1]: stable

Compound: Nc1ncnc2c1ncn2[C@@H]1O[C@H](CO)[C@@H](O)[C@H]1O [Ado, adenosine]
- Stability on adding standard purines to whole blood [3]: immediate loss
- Stability in DBS specimens [1]: stable

Compound: Nc1nc2c(ncn2[C@@H]2O[C@H](CO)[C@@H](O)[C@H]2O)c(=O)[nH]1 [Gua, guanosine]
- Stability in DBS specimens [1]: stable
